Test results from ChEMBL document CHEMBL1145970 (J Med Chem, 2003).
Activity calls are given as the source filed them. No cut-off for these calls is given here.

Columns and labels:
[1] = target: 5-hydroxytryptamine receptor 7 (Rattus norvegicus, UniProt P32305); assay: Binding affinity to the rat 5-hydroxytryptamine 7 receptor
[2] = target: T1, 5-hydroxytryptamine receptor 1A (Rattus norvegicus, UniProt P19327); assay: Binding affinity to the rat 5-hydroxytryptamine 1A receptor
T1 sequence (P19327 whole entry): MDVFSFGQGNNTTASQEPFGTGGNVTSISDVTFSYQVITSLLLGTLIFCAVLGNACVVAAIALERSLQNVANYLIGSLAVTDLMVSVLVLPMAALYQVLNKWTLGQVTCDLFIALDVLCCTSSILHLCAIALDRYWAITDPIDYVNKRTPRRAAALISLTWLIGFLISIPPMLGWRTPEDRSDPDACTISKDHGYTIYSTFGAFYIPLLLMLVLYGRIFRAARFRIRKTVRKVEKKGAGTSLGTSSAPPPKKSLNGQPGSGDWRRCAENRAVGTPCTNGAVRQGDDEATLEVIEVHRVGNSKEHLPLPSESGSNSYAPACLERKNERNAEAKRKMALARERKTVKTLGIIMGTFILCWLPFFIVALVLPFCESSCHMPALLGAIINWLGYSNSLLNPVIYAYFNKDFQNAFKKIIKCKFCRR

[3] = target: D(2) dopamine receptor (Homo sapiens, UniProt P14416); assay: Binding affinity of compound was tested for Dopamine receptor D2L
[4] = target: T2, Adrenergic receptor alpha-1 (Rattus norvegicus, UniProt P15823+P23944+P43140); assay: Binding affinity of compound was tested for Alpha-1 adrenergic receptor; type: protein assay
T2 sequence (P15823 whole entry): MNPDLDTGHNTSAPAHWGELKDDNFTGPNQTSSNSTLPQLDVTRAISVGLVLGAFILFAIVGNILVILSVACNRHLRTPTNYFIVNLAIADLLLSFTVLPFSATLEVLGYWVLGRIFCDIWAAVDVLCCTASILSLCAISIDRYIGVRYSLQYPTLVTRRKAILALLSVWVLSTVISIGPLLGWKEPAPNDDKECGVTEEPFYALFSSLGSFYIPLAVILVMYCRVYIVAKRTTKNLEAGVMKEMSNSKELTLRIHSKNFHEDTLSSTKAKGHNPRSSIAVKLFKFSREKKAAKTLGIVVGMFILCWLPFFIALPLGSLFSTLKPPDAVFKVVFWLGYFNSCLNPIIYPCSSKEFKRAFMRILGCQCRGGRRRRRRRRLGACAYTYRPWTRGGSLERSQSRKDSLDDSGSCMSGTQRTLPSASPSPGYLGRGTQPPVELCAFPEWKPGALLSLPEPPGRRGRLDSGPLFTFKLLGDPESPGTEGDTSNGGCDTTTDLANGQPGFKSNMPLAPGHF
T2 sequence (P23944 whole entry): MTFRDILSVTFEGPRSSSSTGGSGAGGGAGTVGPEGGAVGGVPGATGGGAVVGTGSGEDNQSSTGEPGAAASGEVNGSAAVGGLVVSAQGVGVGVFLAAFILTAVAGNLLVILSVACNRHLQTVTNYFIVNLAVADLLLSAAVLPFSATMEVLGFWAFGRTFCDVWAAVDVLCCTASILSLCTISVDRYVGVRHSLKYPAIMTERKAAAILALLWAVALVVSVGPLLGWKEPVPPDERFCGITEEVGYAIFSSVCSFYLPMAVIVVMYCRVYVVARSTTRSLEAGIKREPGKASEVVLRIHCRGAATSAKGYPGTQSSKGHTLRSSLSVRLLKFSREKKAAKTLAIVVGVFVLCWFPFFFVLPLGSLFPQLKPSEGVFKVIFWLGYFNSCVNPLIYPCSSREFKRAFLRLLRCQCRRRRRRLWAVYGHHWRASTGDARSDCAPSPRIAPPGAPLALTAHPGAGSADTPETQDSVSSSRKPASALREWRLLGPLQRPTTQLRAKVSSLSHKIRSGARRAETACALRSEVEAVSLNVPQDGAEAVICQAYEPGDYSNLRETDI
T2 sequence (P43140 whole entry): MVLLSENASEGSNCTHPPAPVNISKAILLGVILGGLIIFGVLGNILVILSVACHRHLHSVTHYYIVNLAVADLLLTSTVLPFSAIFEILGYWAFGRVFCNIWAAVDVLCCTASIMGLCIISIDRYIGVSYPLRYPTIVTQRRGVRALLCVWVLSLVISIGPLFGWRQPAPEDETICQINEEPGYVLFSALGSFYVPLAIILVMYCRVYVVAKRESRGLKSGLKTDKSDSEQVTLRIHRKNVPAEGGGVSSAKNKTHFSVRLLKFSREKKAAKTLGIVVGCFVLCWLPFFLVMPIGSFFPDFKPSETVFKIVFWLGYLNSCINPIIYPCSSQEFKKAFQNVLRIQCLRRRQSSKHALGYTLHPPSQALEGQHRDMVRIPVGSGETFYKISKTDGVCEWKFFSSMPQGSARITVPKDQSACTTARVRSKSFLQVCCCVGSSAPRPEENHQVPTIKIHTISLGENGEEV

[5] = target: T3, D(4) dopamine receptor (Homo sapiens, UniProt P21917); assay: Binding affinity of compound was tested for Dopamine receptor D4
T3 sequence (P21917 whole entry): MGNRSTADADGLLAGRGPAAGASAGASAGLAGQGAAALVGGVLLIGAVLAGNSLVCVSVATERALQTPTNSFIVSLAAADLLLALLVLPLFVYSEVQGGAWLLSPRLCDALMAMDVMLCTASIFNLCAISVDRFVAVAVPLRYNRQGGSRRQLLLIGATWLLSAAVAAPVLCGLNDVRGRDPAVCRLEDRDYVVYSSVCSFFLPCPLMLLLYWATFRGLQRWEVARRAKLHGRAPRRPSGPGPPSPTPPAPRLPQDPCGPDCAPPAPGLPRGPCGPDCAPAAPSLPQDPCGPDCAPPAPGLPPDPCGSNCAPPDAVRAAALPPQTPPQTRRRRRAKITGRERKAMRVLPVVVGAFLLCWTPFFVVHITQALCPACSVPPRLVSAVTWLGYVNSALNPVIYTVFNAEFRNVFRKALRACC

[6] = target: D(3) dopamine receptor (Rattus norvegicus, UniProt P19020); assay: Binding affinity of compound was tested for Dopamine receptor D3
[7] = tested on: 5-hydroxytryptamine receptor 7 (Cavia porcellus); assay: Maximal relaxation effect induced by 3 uM compound on substance P stimulated guinea pig ileum with 5-hydroxytryptamine 7 receptor desensitization
[8] = target: 5-hydroxytryptamine receptor 2A (Rattus norvegicus, UniProt P14842); assay: Binding affinity of compound was tested for 5-hydroxytryptamine 2A receptor
[9] = tested on: 5-hydroxytryptamine receptor 7 (Cavia porcellus); assay: Maximal relaxation effect induced by 3 uM compound on substance P stimulated guinea pig ileum with 5-hydroxytryptamine 7 receptor nondesensitization
[10] = target: 5-hydroxytryptamine receptor 7 (Rattus norvegicus) (UniProt P32305); conditions: Ileum
[11] = target: 5-hydroxytryptamine receptor 7 (Rattus norvegicus) (UniProt P32305); conditions: Ileum; remark: listed apart in the source
Description: Maximal relaxation effect induced by 3 uM compound on substance P stimulated guinea pig ileum with 5-hydroxytryptamine receptor desensitization

5-hydroxytryptamine receptor 7, sequence (P32305 whole entry): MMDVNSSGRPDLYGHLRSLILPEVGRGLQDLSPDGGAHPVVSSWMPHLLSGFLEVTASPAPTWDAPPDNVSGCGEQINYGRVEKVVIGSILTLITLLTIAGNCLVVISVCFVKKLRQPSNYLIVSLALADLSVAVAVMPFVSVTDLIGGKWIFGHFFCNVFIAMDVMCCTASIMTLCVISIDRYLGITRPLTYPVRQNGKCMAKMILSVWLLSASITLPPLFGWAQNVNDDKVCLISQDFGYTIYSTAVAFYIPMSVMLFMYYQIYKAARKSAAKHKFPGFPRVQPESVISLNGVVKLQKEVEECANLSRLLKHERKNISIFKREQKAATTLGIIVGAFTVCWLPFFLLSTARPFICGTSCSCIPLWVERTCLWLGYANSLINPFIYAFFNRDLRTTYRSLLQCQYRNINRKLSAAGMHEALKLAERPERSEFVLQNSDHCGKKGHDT
5-hydroxytryptamine receptor 2A, sequence (P14842 whole entry): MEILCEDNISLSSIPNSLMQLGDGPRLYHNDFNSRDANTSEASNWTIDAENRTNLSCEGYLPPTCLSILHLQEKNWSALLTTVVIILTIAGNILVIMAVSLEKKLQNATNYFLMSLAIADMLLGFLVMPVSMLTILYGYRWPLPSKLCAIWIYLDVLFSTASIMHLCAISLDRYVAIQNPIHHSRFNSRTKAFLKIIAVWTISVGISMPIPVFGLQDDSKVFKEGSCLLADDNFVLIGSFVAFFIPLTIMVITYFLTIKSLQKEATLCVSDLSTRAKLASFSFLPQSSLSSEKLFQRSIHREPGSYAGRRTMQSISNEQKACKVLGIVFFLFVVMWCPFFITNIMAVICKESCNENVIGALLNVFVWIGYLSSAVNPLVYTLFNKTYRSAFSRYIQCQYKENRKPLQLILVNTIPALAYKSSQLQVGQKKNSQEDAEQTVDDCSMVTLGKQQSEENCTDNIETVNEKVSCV
D(2) dopamine receptor, sequence (P14416 whole entry): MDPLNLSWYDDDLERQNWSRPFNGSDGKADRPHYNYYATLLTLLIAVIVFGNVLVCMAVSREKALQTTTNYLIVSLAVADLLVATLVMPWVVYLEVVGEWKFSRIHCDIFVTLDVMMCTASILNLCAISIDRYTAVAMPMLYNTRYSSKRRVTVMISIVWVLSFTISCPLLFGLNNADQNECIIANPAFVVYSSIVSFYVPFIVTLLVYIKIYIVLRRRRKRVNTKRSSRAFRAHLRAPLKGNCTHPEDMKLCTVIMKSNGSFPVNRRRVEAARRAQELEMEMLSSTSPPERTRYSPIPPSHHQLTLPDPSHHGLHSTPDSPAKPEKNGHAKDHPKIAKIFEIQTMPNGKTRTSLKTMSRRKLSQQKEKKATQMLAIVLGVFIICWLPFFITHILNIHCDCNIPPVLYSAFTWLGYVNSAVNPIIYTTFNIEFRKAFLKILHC
D(3) dopamine receptor, sequence (P19020 whole entry): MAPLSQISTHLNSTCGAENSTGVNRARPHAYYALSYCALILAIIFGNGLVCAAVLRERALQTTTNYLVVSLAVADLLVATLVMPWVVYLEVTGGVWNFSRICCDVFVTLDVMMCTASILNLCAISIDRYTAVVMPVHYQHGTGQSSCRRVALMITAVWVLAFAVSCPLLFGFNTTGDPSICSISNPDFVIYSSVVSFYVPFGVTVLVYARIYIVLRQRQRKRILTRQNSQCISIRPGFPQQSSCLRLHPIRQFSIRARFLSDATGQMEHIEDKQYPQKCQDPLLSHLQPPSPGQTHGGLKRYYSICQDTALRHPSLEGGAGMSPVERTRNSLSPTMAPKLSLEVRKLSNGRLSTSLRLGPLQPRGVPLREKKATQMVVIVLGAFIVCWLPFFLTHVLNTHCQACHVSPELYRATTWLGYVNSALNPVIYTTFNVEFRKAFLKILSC
5-hydroxytryptamine receptor 7 (Rattus norvegicus), sequence (P32305 whole entry): as the sequence (P32305 whole entry) above

SMILES	Ki [1] [nM]	Ki [2] [nM]	other results
COc1ccccc1N1CCN(CCCCC(=O)c2ccc(O)cc2)CC1	59.1	20	–
O=C(CCCCCN1CCN(c2ccccc2)CC1)c1ccccc1O	43	137	–
COc1cccc(C(=O)CCCCCN2CCN(c3ccccc3OC)CC2)c1	46	3.4	–
CN1CCN(CCCCCC(=O)c2ccccc2O)CC1	> 1000	> 850	–
O=C(CCCCCN1CCN(c2ccccn2)CC1)c1ccccc1O	105	56	–
O=C(CCCCCN1CCN(c2nc3ccccc3[nH]2)CC1)c1ccccc1O	682	> 850	–
NCCc1c[nH]c2ccc(C(N)=O)cc12	0.51	–	Relaxation [11]: inactive
COc1ccccc1N1CCN(CCCCC(=O)c2ccccc2)CC1	43.5	7	–
COc1cccc(C(=O)CCCN2CCN(c3ccccc3OC)CC2)c1	109	0.78	–
O=C(CCCCCN1CCN(c2cccc(C(F)(F)F)c2)CC1)c1ccccc1O	384	282	–
O=C(CCCCCN1CCN(C2CCCCC2)CC1)c1ccccc1O	> 800	> 850	–
O=C(CCCCCN1CCN(c2nc3ccccc3o2)CC1)c1ccccc1O	148	1460	–
COc1ccccc1N1CCN(CCCCCC(=O)c2ccccc2)CC1	28.4	6.4	–
O=C(CCCCN1CCN(c2noc3ccccc23)CC1)c1ccccc1O	52	919	–
COc1cccc(C(=O)CCCCN2CCN(c3ccccc3OC)CC2)c1	85	3.4	–
COc1ccc2onc(N3CCN(CCCCCC(=O)c4ccccc4O)CC3)c2c1	462	389	–

More lines, main results first:

Ki [1] [nM]	Ki [2] [nM]	SMILES	other results
2.93	189	O=C(CCCCCN1CCN(c2noc3ccccc23)CC1)c1ccccc1O	Ki [3]: 246 nM; Ki [4]: 96 nM; Ki [5]: 318 nM; Ki [6]: 361 nM; Relaxation [7]: inactive; Ki [8]: 7.97 nM; Relaxation [9]: 43%
26.8	24	COc1ccccc1N1CCN(CCCCCC(=O)c2cccc(O)c2)CC1	–
19.5	1060	O=C(CCCN1CCN(c2noc3ccccc23)CC1)c1ccccc1O	–
0.9	175	COc1ccccc1C(=O)CCCCCN1CCN(c2noc3ccccc23)CC1	Ki [3]: 78.1 nM; Ki [4]: 0.41 nM; Ki [5]: 3.94 nM; Ki [6]: 54.9 nM; Relaxation [10]: inactive; Ki [8]: 9.03 nM
16.4	4.1	COc1ccccc1N1CCN(CCCCC(=O)c2ccccc2O)CC1	–
23.7	14	COc1ccccc1N1CCN(CCCCCC(=O)c2ccc(O)cc2)CC1	–
5.8	5.8	COc1ccccc1N1CCN(CCCCCC(=O)c2ccccc2O)CC1	–
15	3.7	COc1ccccc1N1CCN(CCCCC(=O)c2cccc(O)c2)CC1	–
